In patent US20240239771A1, “BACTERIAL EFFLUX PUMP INHIBITORS” (priority 2020, published 2024):
Structures can show the parent of a compound that is named as a salt. Where two headings read alike, the source gives them in different places.

How the values were obtained:
[1] = system: Pseudomonas aeruginosa ATCC 27853; assay: Intrinsic MIC assay (CLSI broth microdilution); format: cell-based
Description: MIC assays were conducted in accordance with Clinical and Laboratory Standards Institute (CLSI) guidelines for broth microdilution. A 96-well plate containing cation-adjusted Mueller-Hinton (CAMH broth with 2-fold serial dilution of compounds was inoculated with log-phase bacterial at 5×10^5 CFU/mL. The final volume in each well was 100 μL. Each compound was tested in duplicate. The microtiter plates were incubated in an aerobic environment for 18 hours at 37° C. Then the bacterial growth was tested by reading the plate with a VersaMax plate reader (Molecular Devices, Inc.) at 600 nm. The MIC was defined as the lowest compound concentration that inhibited 90% of bacteria growth.
The intrinsic MIC of the experimental EPIs was tested with the method described. The 2-fold serial dilution begins with 100 μg/mL of tested compound in the first column of the 96-well plates. The following Gram-negative bacterial strain was included in these assays: Pseudomonas aeruginosa ATCC 27853.

[2] = system: Pseudomonas aeruginosa ATCC 27853; assay: Standard EPI assay: MIC of test antibiotic in absence and presence of EPI; format: cell-based; details: for Enhanced Antibiotic's Activity (fold increase), Ceftazidime: ceftazidime with compound at 6.25 μg/mL, relative to MIC without EPI (2 μg/mL); for Enhanced Antibiotic's Activity (fold increase), Doxycycline: doxycycline with compound at 6.25 μg/mL, relative to MIC without EPI (32 μg/mL); for Enhanced Antibiotic's Activity (fold increase), Levofloxacin: levofloxacin with compound at 6.25 μg/mL, relative to MIC without EPI (1 μg/mL)
Description: The EPI assay for the purposes of these studies represents a MIC assay in which the MIC of the antibiotic against the bacteria is tested in the presence of an experimental efflux pump inhibitor (EPI). The highest concentration of the EPI present in the assay typically is ½ of the intrinsic MIC of the compound. If the intrinsic MIC of the EPI is greater than 100 μg/mL, the EPI assay was tested with 50 μg/mL. Using serial dilutions of the EPI, its enhancement of antibiotic activity was then evaluated. The relative EPI activity was decided by comparing the MIC of the antibiotic in the presence of the EPI compound with the intrinsic MIC of the antibiotic alone.
The impact of the EPIs on the MIC values of three test antibiotics (levofloxacin, ceftazidime and doxycycline) against P. aeruginosa ATCC 27853 were evaluated using our standard EPI assay. All three antibiotics levofloxacin, ceftazidime and doxycycline are known substrates of efflux pumps in P. aeruginosa, and are thus well-suited to be test antibiotics to assay for EPI activity.
In our standard EPI assay, the MIC of the test antibiotic is determined in the absence and presence of sub-inhibitory concentrations of the EPI. […] The MIC of levofloxacin against P. aeruginosa ATCC 27853 in the absence of EPI is 1 μg/mL. […] Similarly, the MIC of ceftazidime against P. aeruginosa ATCC 27853 in the absence of EPI is 2 μg/mL. In the presence of 6.25 μg/mL of the Example 4, the MIC of ceftazidime was reduced to 0.5 μg/mL, a 4-fold reduction. […] For all the examples in Table 1, the potentiation activities are determined at 6.25 μg/mL.

[3] = ATCC27853, read-out: Intrinsic MIC of Compound

Row | MIC ([1]; ATCC27853, P. aeruginosa ATCC 27853, compound alone, read-out: Intrinsic MIC of Compound) | SMILES | MIC [1, 3] | Enhanced Antibiotic's Activity (fold increase), Ceftazidime [2] | Enhanced Antibiotic's Activity (fold increase), Doxycycline [2] | Enhanced Antibiotic's Activity (fold increase), Levofloxacin [2]
1 | – | N#Cc1ccc(-c2c(C(=O)NC[C@@H](N)CC(O)CN)[nH]c3ccccc23)cc1 (stereo partly drawn) [Example 11, 3-(4-cyanophenyl)-N-((2S)-2,5-diamino-4-hydroxypentyl)-1H-indole-2-carboxamide hydrogen chloride salt] | > 100 µg/mL | 1 fold | 16 fold | 16 fold
2 | – | NCC(O)C[C@H](N)CNC(=O)c1[nH]c2ccc(F)cc2c1-c1ccccc1Cl (stereo partly drawn) [Example 8, 3-(2-chlorophenyl)-N-((2S)-2,5-diamino-4-hydroxypentyl)-5-fluoro-1H-indole-2-carboxamide hydrogen chloride salt] | > 100 µg/mL | 2 fold | 16 fold | 16 fold
3 | – | NCCC(O)[C@@H](N)CNC(=O)c1cc2cccc(-c3ccc(F)cc3)c2[nH]1 (stereo partly drawn) [Example 28, N-((2S)-2,5-diamino-3-hydroxypentyl)-7-(4-fluorophenyl)-1H-indole-2-carboxamide hydrogen chloride salt] | 50 µg/mL | – | – | 16 fold
4 | – | NCC(O)C[C@H](N)CNC(=O)c1[nH]c2ccccc2c1Sc1cccc(F)c1 (stereo partly drawn) [Example 29, N-((2S)-2,5-diamino-4-hydroxypentyl)-3-((3-fluorophenyl)thio)-1H-indole-2-carboxamide hydrogen chloride salt] | 200 µg/mL | 2 fold | 64 fold | 32 fold
5 | – | NCCC(O)[C@@H](N)CNC(=O)c1[nH]c2ccccc2c1C1CCCC1 (stereo partly drawn) [Example 4, 3-cyclopentyl-N-((2S)-2,5-diamino-3-hydroxypentyl)-1H-indole-2-carboxamide hydrogen chloride salt] | > 100 µg/mL | 4 fold | 32 fold | 32 fold
6 | – | NC[C@H]1CN[C@H](CNC(=O)c2[nH]c3ccccc3c2-c2ccc(F)cc2)[C@H]1O [Example 23, N-(((2R,3S,4S)-4-(aminomethyl)-3-hydroxypyrrolidin-2-yl)methyl)-3-(4-fluorophenyl)-1H-indole-2-carboxamide hydrogen chloride salt] | > 100 µg/mL | 2 fold | 16 fold | 8 fold
7 | – | N#Cc1ccc(-c2c(C(=O)NC[C@@H](N)CC(O)CN)[nH]c3c(F)cccc23)cc1 (stereo partly drawn) [Example 14, 3-(4-cyanophenyl)-N-((2S)-2,5-diamino-4-hydroxypentyl)-7-fluoro-1H-indole-2-carboxamide hydrogen chloride salt] | > 100 µg/mL | 1 fold | 16 fold | 32 fold
8 | – | NC[C@H]1CN[C@H](CNC(=O)c2[nH]c3ccccc3c2-c2ccc(F)cc2)[C@@H]1O [Example 26, N-(((2R,3R,4S)-4-(aminomethyl)-3-hydroxypyrrolidin-2-yl)methyl)-3-(4-fluorophenyl)-1H-indole-2-carboxamide hydrogen chloride salt] | > 100 µg/mL | 2 fold | 32 fold | 16 fold
9 | – | Cc1c(C(=O)NC[C@@H](N)COCCN)[nH]c2cccc(-c3ccc(F)cc3)c12 [Example 33, (R)—N-(2-amino-3-(2-aminoethoxy)propyl)-4-(4-fluorophenyl)-3-methyl-1H-indole-2-carboxamide hydrogen chloride salt] | 100 µg/mL | – | 128 fold | 32 fold
10 | – | NCCOC[C@H](N)CNC(=O)c1[nH]c2ccccc2c1-c1ccc(F)cc1 [Example 19, (R)—N-(2-amino-3-(2-aminoethoxy)propyl)-3-(4-fluorophenyl)-1H-indole-2-carboxamide hydrogen chloride salt] | > 100 µg/mL | 2 fold | 16 fold | 16 fold
11 | – | NCCOC[C@H](N)CNC(=O)c1cc2ccc(-c3ccccc3)cc2[nH]1 [Example 32, (R)—N-(2-amino-3-(2-aminoethoxy)propyl)-6-phenyl-1H-indole-2-carboxamide hydrogen chloride salt] | > 200 µg/mL | – | – | 4 fold
12 | – | NCCC(O)[C@@H](N)CNC(=O)c1[nH]c2ccccc2c1C1CCC(F)(F)CC1 (stereo partly drawn) [Example 6, N-((2S)-2,5-diamino-3-hydroxypentyl)-3-(4,4-difluorocyclohexyl)-1H-indole-2-carboxamide hydrogen chloride salt] | 100 µg/mL | 4 fold | 16 fold | 64 fold
13 | – | NCCC[C@H](N)COC[C@H](N)CNC(=O)c1[nH]c2ccccc2c1-c1ccc(F)cc1 [Example 34, N—((R)-2-amino-3-(((S)-2,5-diaminopentyl)oxy)propyl)-3-(4-fluorophenyl)-1H-indole-2-carboxamide hydrogen chloride salt] | > 200 µg/mL | – | 32 fold | 8 fold
14 | – | N#Cc1ccc(-c2c(C(=O)NC[C@@H](N)CC(O)CN)[nH]c3ccc(F)cc23)cc1 (stereo partly drawn) [Example 9, 3-(4-cyanophenyl)-N-((2S)-2,5-diamino-4-hydroxypentyl)-5-fluoro-1H-indole-2-carboxamide hydrogen chloride salt] | > 100 µg/mL | 2 fold | 32 fold | 32 fold
15 | 200 µg/mL | NCC(O)[C@H](N)CNC(=O)c1[nH]c2ccccc2c1-c1ccc(F)cc1 (stereo partly drawn) [Example 35, N-((2R)-2,4-diamino-3-hydroxybutyl)-3-(4-fluorophenyl)-1H-indole-2-carboxamide] | – | – | – | 4 fold
